Experimental data as given in US11673965B2, “Method of treating metastatic triple negative breast cancer with radiotherapy combined with phosphatidyl inositol-3 kinase delta/gamma inhibitors and anti-PD-1 antibodies” (Seoul National University R&DB Foundation, priority 2019, dated 2023).

Tested on: 4T1-luc triple negative breast cancer cells
Test: Size change of tumor in triple negative breast cancer allograft mouse model
Type: in vivo, mouse (BALB/c)
Conditions: 31st day; 4T1-luc allograft; duvelisib 4 mg/kg and/or PD-1 blockade 10 mg/kg by injection 6 times; RT 8 Gy×3
Method: A triple negative breast cancer cell line (4T1-luc) was cultured in DMEM (Dulbecco's Modified Eagle's Medium, CORNING™) medium containing 10% (v/v) fetal bovine serum (FBS) and 1% (w/v) Penicillin-Streptomycin, using a cell culture flask, in a thermostat cell culture device under the condition of 37° C., 5% CO2.
6×10^5 4T1-luc triple negative breast cancer cells prepared in Example 1-1 were injected to the right hindlimb of a BALB/c female age standard (8 weeks) mice. At the 10th day after injecting each of the cancer cells, the mice with the tumor volume up to 40 mm^3 were selected, and were used for later experiments.
The triple negative breast cancer (TNBC) mouse model prepared by the method of Example 1-2 was assigned to 7 groups in total from the 10th day after cancer cell transplantation, and each treatment method was performed, and it was grouped into 7 groups so that the tumor mean volume of 7 mice was 40 mm^3 per group, and were used for later experiments.
Each treatment was progressed for 31 days after tumor transplantation. […]
On the day of each treatment, the size of tumor, the length and width were measured using Vernier caliper, and then the volume (mm^3) of tumor was calculated by the method of the following equation 1. […]

**Q.** Which Mean tumor volume does the source give for `C[C@H](Nc1ncnc2nc[nH]c12)c1cc2cccc(Cl)c2c(=O)n1-c1ccccc1` [PI3K γ δ inhibitor, duvelisib] here?
**A.** 786.59 mm^3
